Experimental data taken from patent US4053481A, “2-Aryl-3,4-diphenylisoxazolin-5-ones” (G. D. Searle & Co., priority 1976, dated 1977).

Tested on: microsomal-cytosol fraction
Experiment: % inhibition of C14-acetate incorporation into lipid fractions (fatty acid and cholesterol biosynthesis) in rat liver microsomal-cytosol fraction
Format: biochemical, Male Charles River rats
Conditions: 0.001 M; 37° C., 90 minutes
Procedure: The instant compounds are useful as pharmacological agents as evidenced by their ability to reduce serum triglyceride and cholesterol levels as determined in the following assay:
Male Charles River rats (160-200 g.), having had free access to food and water, are administered a standard diet containing 2% DEAE - cellulose (Reeve Angel anion exchange resin) for 5 days. The rats then are sacrificed and their livers removed immediately. The livers are homogenized in a medium consisting of 0.1 M potassium phosphate, pH 7.4, 0.004 m MgCl2 and 0.03 M nicotinamide, and the microsomalcytosol fraction obtained by centrifugation. 2.0 Ml. of the microsomal-cytosol fraction is incubated, at 37° C. for 90 minutes for fatty acid measurements and for measurement of cholosterol biosynthesis, in a standard assay mixture containing 10 micromoles of sodium acetate containing 0.1 microcuries of 2-C^14 -acetate, 2 micromoles nicotinamide adenine dinucleotide, 2 micromoles nicotinamide adenine dinucleotide phosphate, and 20 micromoles glucose-6-phosphate, and test compound, initially at 0.001 M, is added. All assays are run in duplicate with the assay to which no test compound is added serving as control. Heat inactivated homogenate serves as blank for both control and test systems.
Reaction rate is determined per unit of time by the amount of C^14 label incorporated into the lipid fraction from the radioactive acetate. Results are reported as % inhibition (i.e. (Difference in Reaction Rate between Control and Test Compound/Reaction Rate for Control) × 100).
Typical results are shown below in Table I for the product of Example 2, referred to as Compound I. Also represented are the results for Atromid S® , a brand of clofibrate, marketed as a hypocholesterolemic agent.

SMILES: CCOC(=O)C(C)(C)Oc1ccc(Cl)cc1 [Atromid-S, clofibrate]
- % Inhibition, Fatty Acid Fraction: 24%
- % Inhibition, Fraction (first column, qualifier not given): 28%
- % Inhibition, Non-Lipid Fraction: 42%
